{
  "source": "patent US20260102359A1",
  "about": "“COMBINATION TREATMENT OF DERMAL AND TRANSDERMAL FIBROTIC DISEASES, DISORDERS AND ASSOCIATED PAIN AND INFLAMMATION” (ERESINA, LLC, priority 2022, published 2026)",
  "note": "Counter-ions that a name gives are not always drawn. Where a SMILES comes first, the peptide text is derived from it.",
  "data": [
    {"tested_on": "hDMFa myofibroblast cells", "values": [
      {"smiles": "Cl.Cl.OCCN1CCN(CCCN2c3ccccc3Sc3ccc(C(F)(F)F)cc32)CC1", "note": "[Cmpd 465, Fluphenazine dihydrochloride]", "Compound Myofibroblast Cytotoxicity Activity": "+++++"},
      {"smiles": "COCCCC/C(=N\\OCCN)c1ccc(C(F)(F)F)cc1", "note": "[Cmpd 466, Fluvoxamine maleate]", "Compound Myofibroblast Cytotoxicity Activity": "++"},
      {"smiles": "Nc1nc2ncc(CNc3ccc(C(=O)N[C@@H](CCC(=O)O)C(=O)O)cc3)nc2c(=O)[nH]1", "note": "[Cmpd 467, Folic acid]", "Compound Myofibroblast Cytotoxicity Activity": "++"},
      {"smiles": "Nc1nc(=O)c2c([nH]1)NCC(CNc1ccc(C(=O)N[C@@H](CCC(=O)[O-])C(=O)[O-])cc1)N2C=O.[Ca+2]", "note": "(stereo partly drawn) [Cmpd 468, Folinic Acid (calcium salt)]", "Compound Myofibroblast Cytotoxicity Activity": "+++"},
      {"smiles": "CNC(=O)c1c(C)oc2cc(Oc3ncnc4cc(OC)c(OC)cc34)ccc12", "note": "[Cmpd 472, Fruquintinib(HMPL-013)]", "Compound Myofibroblast Cytotoxicity Activity": "++++"},
      {"smiles": "N[C@@H](CSCCCO)C(=O)O", "note": "[Cmpd 473, Fudosteine]", "Compound Myofibroblast Cytotoxicity Activity": "++++"},
      {"smiles": "CC(=O)O[C@H]1C[C@@]2(C)[C@@H](C[C@@H](O)[C@H]3[C@@]4(C)CC[C@@H](O)[C@@H](C)[C@@H]4CC[C@@]32C)/C1=C(\\CCC=C(C)C)C(=O)O", "note": "[Cmpd 477, Fusidic Acid (sodium salt)]", "Compound Myofibroblast Cytotoxicity Activity": "+++"},
      {"smiles": "CC(C)=C1C/C=C(\\C)CC/C=C(\\C)CC1=O", "note": "[Cmpd 482, Germacrone]", "Compound Myofibroblast Cytotoxicity Activity": "+++++"},
      {"smiles": "COc1ccc2c(c1)C(=O)N(CCc1ccc(S(=O)(=O)NC(=O)NC3CCCCC3)cc1)C(=O)C2(C)C", "note": "[Cmpd 485, Gliquidone]", "Compound Myofibroblast Cytotoxicity Activity": "++"},
      {"smiles": "NCC(=O)O", "note": "[Cmpd 487, Glycine (GLY)]", "Compound Myofibroblast Cytotoxicity Activity": "++++"},
      {"smiles": "C[C@H](CCC(=O)NCC(=O)O)[C@H]1CC[C@H]2[C@@H]3[C@H](O)C[C@@H]4C[C@H](O)CC[C@]4(C)[C@H]3C[C@H](O)[C@]12C", "note": "[Cmpd 488, Glycocholic Acid]", "Compound Myofibroblast Cytotoxicity Activity": "++++"},
      {"smiles": "NCC(=O)NCC(=O)O", "note": "[Cmpd 489, Glycylglycine] (H-Gly-Gly-OH)", "Compound Myofibroblast Cytotoxicity Activity": "++"},
      {"smiles": "C[C@]1(OC(=O)/C=C/c2ccccc2)C[C@@H](O)[C@]2(O)C=CO[C@@H](O[C@@H]3O[C@H](CO)[C@@H](O)[C@H](O)[C@H]3O)[C@@H]21", "note": "[Cmpd 499, Harpagoside]", "Compound Myofibroblast Cytotoxicity Activity": "++"},
      {"smiles": "COc1ccc([C@@H]2CC(=O)c3c(O)cc(O)cc3O2)cc1O", "note": "[Cmpd 503, Hesperitin]", "Compound Myofibroblast Cytotoxicity Activity": "++"},
      {"smiles": "Oc1c(Cl)cc(Cl)c(Cl)c1Cc1c(O)c(Cl)cc(Cl)c1Cl", "note": "[Cmpd 504, Hexachlorophene]", "Compound Myofibroblast Cytotoxicity Activity": "+++++"},
      {"smiles": "C[Si]1(C)O[Si](C)(C)O[Si](C)(C)O1", "note": "[Cmpd 505, Hexamethylcyclotrisiloxane]", "Compound Myofibroblast Cytotoxicity Activity": "+"},
      {"smiles": "CC[C@H]1CN2CC[C@H]1C[C@@H]2[C@@H](O)c1ccnc2ccc(OC)cc12", "note": "[Cmpd 508, Hydroquinidine]", "Compound Myofibroblast Cytotoxicity Activity": "++"},
      {"smiles": "Oc1ccc(O)cc1", "note": "[Cmpd 509, Hydroquinone]", "Compound Myofibroblast Cytotoxicity Activity": "++"},
      {"smiles": "CC(=O)[C@]1(O)Cc2c(O)c3c(c(O)c2[C@@H](O[C@H]2C[C@H](N)[C@H](O)[C@H](C)O2)C1)C(=O)c1ccccc1C3=O", "note": "[Cmpd 515, Idarubicin HCl]", "Compound Myofibroblast Cytotoxicity Activity": "+++++"},
      {"smiles": "O=P1(NCCCl)OCCCN1CCCl", "note": "(stereo not drawn) [Cmpd 518, Ifosfamide]", "Compound Myofibroblast Cytotoxicity Activity": "+++"},
      {"smiles": "CN(C)CCCN1c2ccccc2CCc2ccccc21", "note": "[Cmpd 523, Imipramine (hydrochloride)]", "Compound Myofibroblast Cytotoxicity Activity": "+++"},
      {"smiles": "CC1Cc2ccccc2N1NC(=O)c1ccc(Cl)c(S(N)(=O)=O)c1", "note": "(stereo not drawn) [Cmpd 527, Indapamide]", "Compound Myofibroblast Cytotoxicity Activity": "+++"},
      {"smiles": "O=C1/C(=C2\\Nc3ccc(S(=O)(=O)[O-])cc3C2=O)Nc2ccc(S(=O)(=O)[O-])cc21.[Na+].[Na+]", "note": "[Cmpd 528, Indigo carmine]", "Compound Myofibroblast Cytotoxicity Activity": "++"},
      {"smiles": "NC(=O)c1ccc(I)c([N+](=O)[O-])c1", "note": "[Cmpd 531, Iniparib (BSI-201)]", "Compound Myofibroblast Cytotoxicity Activity": "+++++"},
      {"smiles": "Clc1ccc(C(Cn2ccnc2)OCc2c(Cl)cccc2Cl)c(Cl)c1", "note": "(stereo not drawn) [Cmpd 535, Isoconazole nitrate]", "Compound Myofibroblast Cytotoxicity Activity": "+++"},
      {"smiles": "CC=Cc1ccc(O)c(OC)c1", "note": "[Cmpd 536, Isoeugenol]", "Compound Myofibroblast Cytotoxicity Activity": "++"},
      {"smiles": "O=C(O)c1ccncc1", "note": "[Cmpd 537, Isonicotinic acid]", "Compound Myofibroblast Cytotoxicity Activity": "++++"},
      {"smiles": "CC(=O)Nc1ccc(C(=O)O)cc1.CC(=O)Nc1ccc(C(=O)O)cc1.CC(=O)Nc1ccc(C(=O)O)cc1.CC(O)CN(C)C.CC(O)CN(C)C.CC(O)CN(C)C.O=c1[nH]cnc2c1ncn2[C@@H]1O[C@H](CO)[C@@H](O)[C@H]1O", "note": "[Cmpd 538, Isoprinosine]", "Compound Myofibroblast Cytotoxicity Activity": "++"},
      {"smiles": "CC(C)NCC(O)c1ccc(O)c(O)c1", "note": "(stereo not drawn) [Cmpd 539, Isoproterenol sulfate dihydrate]", "Compound Myofibroblast Cytotoxicity Activity": "++"},
      {"smiles": "O=[N+]([O-])O[C@@H]1CO[C@H]2[C@@H]1OC[C@@H]2O", "note": "[Cmpd 540, Isosorbide 5-mononitrate]", "Compound Myofibroblast Cytotoxicity Activity": "++"},
      {"smiles": "CC(COc1ccccc1)NC(C)C(O)c1ccc(O)cc1", "note": "(stereo not drawn) [Cmpd 542, Isoxsuprine (hydrochloride)]", "Compound Myofibroblast Cytotoxicity Activity": "++"},
      {"smiles": "Cc1ccc(C(=O)N(CCCN)[C@@H](c2nc3cc(Cl)ccc3c(=O)n2Cc2ccccc2)C(C)C)cc1", "note": "[Cmpd 543, Ispinesib (SB-715992)]", "Compound Myofibroblast Cytotoxicity Activity": "+++++"},
      {"smiles": "COC(=O)C1=C(C)NC(C)=C(C(=O)OC(C)C)C1c1cccc2nonc12", "note": "(stereo not drawn) [Cmpd 544, Isradipine (Dynacirc)]", "Compound Myofibroblast Cytotoxicity Activity": "++"},
      {"smiles": "C[C@H]1O[C@H](OC2[C@@H](O)[C@@H](O)C(O)[C@H](O)[C@H]2O)[C@@H](N)C[C@@H]1N=C(N)C(=O)O.Cl", "note": "(stereo partly drawn) [Cmpd 548, Kasugamycin (hydrochloride)]", "Compound Myofibroblast Cytotoxicity Activity": "+++"},
      {"smiles": "CC(CCc1ccccc1)NCC(O)c1ccc(O)c(C(N)=O)c1", "note": "(stereo not drawn) [Cmpd 553, Labetalol HCl]", "Compound Myofibroblast Cytotoxicity Activity": "++"},
      {"smiles": "CS(=O)(=O)CCNCc1ccc(-c2ccc3ncnc(Nc4ccc(OCc5cccc(F)c5)c(Cl)c4)c3c2)o1", "note": "[Cmpd 558, Lapatinib Ditosylate]", "Compound Myofibroblast Cytotoxicity Activity": "+++"},
      {"smiles": "CCN(C(=O)c1c(O)c2c(Cl)cccc2n(C)c1=O)c1ccccc1", "note": "[Cmpd 559, Laquinimod (ABR-215062)]", "Compound Myofibroblast Cytotoxicity Activity": "++++"},
      {"smiles": "N=C(N)NCCC[C@H](N)C(=O)O", "note": "[Cmpd 561, L-Arginine]", "Compound Myofibroblast Cytotoxicity Activity": "++"},
      {"smiles": "O=C1O[C@H]([C@@H](O)CO)C(O)=C1O", "note": "[Cmpd 562, L-Ascorbic Acid (Vitamin C)]", "Compound Myofibroblast Cytotoxicity Activity": "+"},
      {"smiles": "CCCCCCCCCCCC(=O)O", "note": "[Cmpd 564, Lauric Acid]", "Compound Myofibroblast Cytotoxicity Activity": "++"},
      {"smiles": "CCCCCCCCCCCCN1CCCCCC1=O", "note": "[Cmpd 565, Laurocapram]", "Compound Myofibroblast Cytotoxicity Activity": "+++++"},
      {"smiles": "Cc1c(C(=O)Nc2ccc(N3C[C@@H](C)O[C@@H](C)C3)nc2)cccc1-c1ccc(OC(F)(F)F)cc1.O=P(O)(O)O.O=P(O)(O)O", "note": "[Cmpd 572, LDE225 Diphosphate]", "Compound Myofibroblast Cytotoxicity Activity": "++"},
      {"smiles": "Cl.c1ccc2c(-c3cnn4cc(-c5ccc(N6CCNCC6)cc5)cnc34)ccnc2c1", "note": "[Cmpd 574, LDN193189 Hydrochloride]", "Compound Myofibroblast Cytotoxicity Activity": "+++++"},
      {"smiles": "c1cc(-c2cnn3cc(-c4ccc(N5CCNCC5)cc4)cnc23)c2cccnc2c1", "note": "[Cmpd 575, LDN-212854]", "Compound Myofibroblast Cytotoxicity Activity": "++++"},
      {"smiles": "Nc1cccc2c1CN(C1CCC(=O)NC1=O)C2=O", "note": "(stereo not drawn) [Cmpd 578, Lenalidomide (CC-5013)]", "Compound Myofibroblast Cytotoxicity Activity": "++"},
      {"smiles": "CCOC(=O)C1=C(COCCN)NC(C)=C(C(=O)OC)[C@@H]1c1ccccc1Cl", "note": "[Cmpd 580, Levamlodipine]", "Compound Myofibroblast Cytotoxicity Activity": "+++++"},
      {"smiles": "CC(=O)CCC(=O)O", "note": "[Cmpd 583, Levulinic acid]", "Compound Myofibroblast Cytotoxicity Activity": "++"},
      {"smiles": "N[C@@H](CCC(=O)O)C(=O)[O-].[Na+]", "note": "[Cmpd 584, L-Glutamic acid monosodium salt]", "Compound Myofibroblast Cytotoxicity Activity": "++"},
      {"smiles": "N[C@@H](CCC(=O)N[C@@H](CS)C(=O)NCC(=O)O)C(=O)O", "note": "[Cmpd 585, L-Glutathione Reduced]", "Compound Myofibroblast Cytotoxicity Activity": "++++"},
      {"smiles": "N[C@@H](Cc1c[nH]cn1)C(=O)O", "note": "[Cmpd 586, L-Histidine]", "Compound Myofibroblast Cytotoxicity Activity": "+"},
      {"smiles": "CC1(C)Cc2c(-c3ccccc3)c(-c3ccc(Cl)cc3)c(CC(=O)O)n2C1", "note": "[Cmpd 588, Licofelone]", "Compound Myofibroblast Cytotoxicity Activity": "+++"},
      {"smiles": "CCN(CC)CC(=O)Nc1c(C)cccc1C.Cl.O", "note": "[Cmpd 589, Lidocaine hydrochloride monohydrate]", "Compound Myofibroblast Cytotoxicity Activity": "++"},
      {"smiles": "CCCCC/C=C\\C/C=C\\CCCCCCCC(=O)O", "note": "[Cmpd 591, Linoleic Acid]", "Compound Myofibroblast Cytotoxicity Activity": "+++"},
      {"smiles": "C[C@]1(O)C[C@@H](c2nc(-c3ccc4ccc(-c5ccccc5)nc4c3)c3c(N)nccn32)C1", "note": "[Cmpd 592, Linsitinib]", "Compound Myofibroblast Cytotoxicity Activity": "+++"},
      {"smiles": "CC[C@H](C)[C@H](N)C(=O)O", "note": "[Cmpd 594, L-Isoleucine]", "Compound Myofibroblast Cytotoxicity Activity": "+"},
      {"smiles": "O=C([O-])[O-].[Li+].[Li+]", "note": "[Cmpd 595, Lithium carbonate]", "Compound Myofibroblast Cytotoxicity Activity": "++++"},
      {"smiles": "CC(C)C[C@H](N)C(=O)O", "note": "[Cmpd 596, L-Leucine]", "Compound Myofibroblast Cytotoxicity Activity": "+++"},
      {"smiles": "CSCC[C@H](N)C(=O)O", "note": "[Cmpd 600, L-Methionine]", "Compound Myofibroblast Cytotoxicity Activity": "++++"},
      {"smiles": "CN(C)C(=O)C(CCN1CCC(O)(c2ccc(Cl)cc2)CC1)(c1ccccc1)c1ccccc1", "note": "[Cmpd 606, Loperamide HCl]", "Compound Myofibroblast Cytotoxicity Activity": "+++"},
      {"smiles": "CC(C(=O)O)c1ccc(CC2CCCC2=O)cc1", "note": "(stereo not drawn) [Cmpd 611, Loxoprofen Sodium]", "Compound Myofibroblast Cytotoxicity Activity": "++"},
      {"smiles": "O=C(O)[C@@H]1CCCN1", "note": "[Cmpd 612, L-Proline]", "Compound Myofibroblast Cytotoxicity Activity": "++++"},
      {"smiles": "O=C1CC[C@@H](C(=O)O)N1", "note": "[Cmpd 613, L-Pyroglutamic acid]", "Compound Myofibroblast Cytotoxicity Activity": "++++"},
      {"smiles": "C[C@@H](O)[C@H](N)C(=O)O", "note": "[Cmpd 614, L-Threonine]", "Compound Myofibroblast Cytotoxicity Activity": "+++++"},
      {"smiles": "N[C@@H](Cc1c[nH]c2ccccc12)C(=O)O", "note": "[Cmpd 615, L-Tryptophan]", "Compound Myofibroblast Cytotoxicity Activity": "++"},
      {"smiles": "CC(C)[C@H](N)C(=O)O", "note": "[Cmpd 618, L-Valine]", "Compound Myofibroblast Cytotoxicity Activity": "++"},
      {"smiles": "CCN1CCN(Cc2ccc(Nc3ncc(F)c(-c4cc(F)c5nc(C)n(C(C)C)c5c4)n3)nc2)CC1", "note": "[Cmpd 622, LY2835219 free base]", "Compound Myofibroblast Cytotoxicity Activity": "++++"}
    ]}
  ]
}
